From patent USRE37919E1, “Recombinant DNA method for production of parathyroid hormone” (The General Hospital Corporation, priority 1989, dated 2002)
pEC50: −log10 of the molar value. Where two headings read alike, the source gives them in different places.

Key:
opossum kidney cells [1] = assay: Binding to opossum kidney cells; conditions: FIG. 3
Experimental: (§1) The recombinant peptide produced as described in Example 1 above was tested for it binding to two cells types.

[2] = system: UMR rat osteosarcoma cell line; assay: Binding to UMR rat osteosarcoma cell line; conditions: FIG. 4
Experimental: as §1

opossum kidney cells [3] = assay type: cell-based
Excerpt: (§2) Therefore, the recombinant peptide had PTH biological activity which is largely indistinguishable from that of a known active fragment.

UMR cells = assay: Cyclic AMP response of UMR tumor cells; assay type: cell-based, rat; conditions: FIG. 6, read-out: EC50 of cyclic AMP stimulation
Excerpt: as §2

PTH receptors = molecular target: T1, PTH receptors (Homo sapiens, UniProt Q03431); conditions: literature; cited from earlier work
T1 sequence (Q03431 27-593): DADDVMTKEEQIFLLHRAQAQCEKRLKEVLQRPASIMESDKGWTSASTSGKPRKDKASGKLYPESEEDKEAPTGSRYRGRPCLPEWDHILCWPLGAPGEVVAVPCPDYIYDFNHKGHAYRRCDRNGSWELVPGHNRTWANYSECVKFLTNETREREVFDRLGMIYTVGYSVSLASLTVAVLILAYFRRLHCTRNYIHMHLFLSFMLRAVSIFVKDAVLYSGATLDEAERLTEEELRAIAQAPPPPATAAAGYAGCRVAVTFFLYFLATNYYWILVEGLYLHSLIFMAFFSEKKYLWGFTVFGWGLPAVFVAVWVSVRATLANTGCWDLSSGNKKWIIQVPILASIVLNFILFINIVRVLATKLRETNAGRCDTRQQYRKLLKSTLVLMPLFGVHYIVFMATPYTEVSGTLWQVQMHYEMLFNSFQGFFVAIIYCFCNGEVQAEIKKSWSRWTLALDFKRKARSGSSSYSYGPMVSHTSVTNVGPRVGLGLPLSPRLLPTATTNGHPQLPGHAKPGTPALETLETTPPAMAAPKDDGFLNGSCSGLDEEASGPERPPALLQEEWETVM

Row | pEC50 (opossum kidney cells [3]) | pEC50 (UMR cells) | pEC50 (opossum kidney cells [3]; opossum kidney cells, FIG. 5, read-out: EC50 of cyclic AMP stimulation) | Compound | half-maximal binding (opossum kidney cells [1]) | half-maximum value of binding [2] | PTH antagonist activity in vitro (PTH receptors)
1 | ~8.40 | ~10.00 |  | CC[C@H](C)[C@H](NC(=O)[C@H](CCC(=O)O)NC(=O)[C@H](CO)NC(=O)[C@@H](NC(=O)[C@@H](N)CO)C(C)C)C(=O)N[C@@H](CCC(N)=O)C(=O)N[C@@H](CC(C)C)C(=O)N[C@@H](CCSC)C(=O)N[C@@H](Cc1c[nH]cn1)C(=O)N[C@@H](CC(N)=O)C(=O)N[C@@H](CC(C)C)C(=O)NCC(=O)N[C@@H](CCCCN)C(=O)N[C@@H](Cc1c[nH]cn1)C(=O)N[C@@H](CC(C)C)C(=O)N[C@@H](CC(N)=O)C(=O)N[C@@H](CO)C(=O)N[C@@H](CCSC)C(=O)N[C@@H](CCC(=O)O)C(=O)N[C@@H](CCCNC(=N)N)C(=O)N[C@H](C(=O)N[C@@H](CCC(=O)O)C(=O)N[C@@H](Cc1c[nH]c2ccccc12)C(=O)N[C@@H](CC(C)C)C(=O)N[C@@H](CCCNC(=N)N)C(=O)N[C@@H](CCCCN)C(=O)N[C@@H](CCCCN)C(=O)N[C@@H](CC(C)C)C(=O)N[C@@H](CCC(N)=O)C(=O)N[C@@H](CC(=O)O)C(=O)N[C@H](C(=O)N[C@@H](Cc1c[nH]cn1)C(=O)N[C@@H](CC(N)=O)C(=O)N[C@@H](Cc1ccccc1)C(=O)O)C(C)C)C(C)C [synthetic PTH(1-34)] | about 1 nM | about 2 nM | 
2 |  |  |  | PTH (3-34): synthetic analog of bovine PTH, recognized PTH antagonist (SEIQFMHNLGKHLSSMERVEWLRKKLQDVHNF; Parathyroid hormone; UniProt P01268 34-65, looked up, fragment) |  |  | potent PTH antagonist
3 |  | ~8.52 | ~8.00 | human parathyroid hormone 1-84 [recombinant hPTH(1-84)] | about 3 nM | about 10 nM | 
